Laboratory results taken from US8691990B2, “6-heterocyclic imidazo[1,2-α]pyridine-2-carboxamide derivatives, preparation and therapeutic use thereof” (Sanofi, priority 2008, dated 2014).
Structures can show the parent of a compound that is named as a salt.

Target: T1, murine Nurr 1 receptor (Mus musculus, UniProt Q06219)
T1 construct: a cell line (N2A) endogenously expressing the murine Nurr 1 receptor; host or cells: Neuro-2A (N2A) mouse neuroblastoma cells stably transfected with 8NBRE-luciferase
Assay: In vitro activity on N2A cells (NBRE-luciferase reporter gene)
Assay type: cell-based
Conditions: N2A cell line endogenously expressing Nurr 1, stably transfected with 8NBRE-luciferase; products incubated 24 hours
Method: Evaluation of the In Vitro Activity on N2A Cells
The activity of the compounds according to the invention was evaluated on a cell line (N2A) endogenously expressing the murine Nurr 1 receptor and stably transfected with the NOT binding response element (NBRE) coupled to the luciferase reporter gene. The EC50 values are between 0.01 and 1000 nM. The tests were performed according to the procedure described hereinbelow.
The cell line Neuro-2A is obtained from a standard commercial source (ATCC). The clone Neuro-2A was obtained from a spontaneous tumour originating from a strain of albino mice A by R. J Klebe et al. This line Neuro-2A is then stably transfected with 8NBRE-luciferase. The N2A-8NBRE cells are cultured to the point of confluence in 75 cm^2 culture flasks containing DMEM supplemented with 10% foetal calf serum, 4.5 g/L of glucose and 0.4 mg/ml of geneticin. After culturing for one week, the cells are recovered with 0.25% trypsin for 30 seconds and then resuspended in DMEM without phenol red, containing 4.5 g/L of glucose and 10% Hyclone defatted serum, and placed in white, transparent-based 96-well plates. The cells are deposited at a rate of 60 000 per well in 75 μL for 24 hours before adding the products. The products are applied in 25 μL and incubated for a further 24 hours. On the day of measurement, an equivalent volume (100 μL) of Steadylite is added to each well, and the wells are then left for 30 minutes to obtain complete lysis of the cells and maximum production of the signal. The plates are then measured in a microplate luminescence counter, after having been sealed with an adhesive film. The products are prepared in the form of a 10^−2 M stock solution, and then diluted in 100% of DMSO. Each concentration of product is prediluted in culture medium before incubation with the cells thus containing 0.625% final of DMSO.

T1 sequence (Q06219 whole entry): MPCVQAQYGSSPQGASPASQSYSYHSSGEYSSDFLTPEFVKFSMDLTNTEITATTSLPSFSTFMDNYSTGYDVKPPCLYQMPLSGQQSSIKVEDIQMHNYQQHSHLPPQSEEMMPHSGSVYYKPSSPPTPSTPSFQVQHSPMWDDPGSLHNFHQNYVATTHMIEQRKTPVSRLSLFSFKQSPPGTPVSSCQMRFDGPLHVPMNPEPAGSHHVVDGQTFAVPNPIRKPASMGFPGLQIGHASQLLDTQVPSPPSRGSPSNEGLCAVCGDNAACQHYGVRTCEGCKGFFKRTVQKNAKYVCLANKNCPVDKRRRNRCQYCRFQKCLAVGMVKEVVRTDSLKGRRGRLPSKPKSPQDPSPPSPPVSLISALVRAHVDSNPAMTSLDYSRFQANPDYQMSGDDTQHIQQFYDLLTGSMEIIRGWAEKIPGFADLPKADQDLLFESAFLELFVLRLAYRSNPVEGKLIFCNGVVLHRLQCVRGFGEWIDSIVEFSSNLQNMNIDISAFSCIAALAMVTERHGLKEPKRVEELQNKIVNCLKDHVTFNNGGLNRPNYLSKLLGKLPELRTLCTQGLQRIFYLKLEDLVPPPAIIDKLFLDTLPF

Row | Compound | EC50 [nM]
1 | O=C(Nc1ccccc1)c1cn2cc(-c3ccccn3)ccc2n1 [Compound 3, N-Phenyl-6-(pyrid-2-yl)imidazo[1,2-a]pyridine-2-carboxamide] | 0.9
2 | O=C(Nc1ccccc1)c1cn2cc(C3=NCCN3)ccc2n1 [Compound 17, 6-(4,5-Dihydro-1H-imidazol-2-yl)-N-phenylimidazo[1,2-a]pyridine-2-carboxamide hydrochlorides (1:1) and (1:2)] | 26.8
3 | O=C(Nc1cc(F)cc(F)c1)c1cn2cc(-c3ccoc3)ccc2n1 [Compound 24, N-(3,5-Difluorophenyl)-6-(furan-3-yl)imidazo[1,2-a]pyridine-2-carboxamide] | 0.9
4 | O=C(Nc1ccccc1)c1cn2cc(-c3cn[nH]c3)ccc2n1 [Compound 29, N-Phenyl-6-(1H-pyrazol-4-yl)imidazo[1,2-a]pyridine-2-carboxamide] | 1.1
5 | O=C(Nc1cccc(F)c1F)c1cn2cc(-c3ccccn3)ccc2n1 [Compound 45, N-(2,3-Difluorophenyl)-6-(pyrid-2-yl)imidazo[1,2-a]pyridine-2-carboxamide] | 1.2
6 | O=C(Nc1cccc(F)c1)c1cn2cc(-c3nc[nH]n3)ccc2n1 [Compound 53, N-(3-Fluorophenyl)-6-(1H-1,2,4-triazol-3-yl)imidazo[1,2-a]pyridine-2-carboxamide] | 0.4
